Patent US9624167B2, “N-(4-hydroxy-4-methyl-cyclohexyl)-4-phenyl-benzenesulfonamides and N-(4-hydroxy-4-methyl-cyclohexyl)-4-(2-pyridyl)benzenesulfonamides and their therapeutic use” (PIMCO 2664 LIMITED, priority 2013, dated 2017)
pIC50: −log10 of the molar value.

Assays:
[1] = test system: J774 macrophages; test: Resazurin Macrophage J774 Viability Assay; format: cell-based; settings: Mus musculus, 6 point concentration range 10 μM to 10 nM, n = 3 replicates, mean of 2 independent experiments, 72 hour incubation, read-out: IC50 (1)
Description: Potency was assessed using a viability assay based on the survival of the J774 macrophage cell line. Macrophages are closely related to osteoclasts and have been used previously as a model system for osteoclast survival (see, e.g., Luckman et al., 1998, “Heterocycle-containing bisphosphonates cause apoptosis and inhibit bone resorption by preventing protein prenylation: evidence from structure-activity relationships in J774 macrophages,” J. Bone Miner. Res., Vol. 13, pp. 1668-1678). The model is indicative both of effects on bone protection in diseases such as osteoporosis, osteoarthritis and rheumatoid arthritis, and of effects on inflammation since, like osteoclasts, J774 macrophages are dependent for survival on continued NFκB activation.
In vitro potency of test compounds was determined by incubation with J774 macrophages and subsequent determination of cell viability using resazurin.
Resazurin is a redox dye commonly used as an indicator of viability in cultured cells (see, e.g., Anoopkumar-Dukie, 2005, British Journal of Radiology, Vol. 78, pp. 945-947). It is non-toxic to cells and stable in culture medium, allowing continuous measurement of cell proliferation in vitro as either a kinetic or endpoint assay. The assay is based on the ability of viable, metabolically-active cells to reduce resazurin (which is blue and non-fluorescent) to resorufin and dihydroresorufin (which are red and fluorescent) using electrons from reducing species, such as nicotinamide adenine dinucleotide (NADPH) and flavin adenine dinucleotide (FADH). This transformation, from oxidised form to reduced form, can be measured either colorimetrically or fluorometrically. Insults that impair cell viability and proliferation also affects the capacity of cells to reduce resazurin, and the rate of dye reduction is directly proportional to the number of viable cells present.
For fluorescence measurements, 530-560 nm excitation and 590 nm emission wavelengths are typically used. For colorimetric measurements, absorbance at 570 nm (reduced form) and 600 nm (oxidised form) is typically measured. A simple calculation is performed to determine the relative quantities of the two species: a high ratio of resorufin (the reduced form) to resazurin (the oxidised form) is an indicator that cells are proliferating and viable. A low ratio indicates cells that are quiescent or non-viable.
J774 cells were plated at 10^4 cells per well in 100 μL αMEM (α Modified Eagle Medium) in 96-well plates and allowed to adhere overnight. The following day, test compounds were prepared as 100 mM solutions in DMSO. These stock solutions were diluted in DMSO and then diluted 1000× in culture medium (αMEM) before being added directly to the wells so as to give the desired final compound concentration. After a 72 hour incubation at 37° C./5% CO2, resazurin (Alamar Blue, Biosource International) was added to each well (1:10 v/v, 10 μL). The plate was then incubated at 37° C. for 3 hours and fluorescence was measured at 590 nm, with a 25 nm bandwidth.
The average results for each test compound were expressed as a percent (%) of the average control value reflecting cell viability. The average values across the concentrations tested were then plotted and the IC50 for was calculated by fitting the data to a 4-parameter IC50 equation using software from Grafit (Erithacus Software). Each experiment was repeated twice and the data are presented as the mean IC50 from both experiments.

[2] = test system: TK6 human lymphoblastoid cell line; test: GreenScreen HC cytotoxicity (propidium iodide uptake); format: cell-based
Description: GreenScreen HC is a mammalian cell-based assay for measuring the genotoxicity and cytotoxicity of chemical compounds and mixtures.
Cytotoxicity is measured in the GreenScreen assay alongside genotoxicity and the results of the cytotoxicity assessment are used to normalise the genotoxicity measurements as described above.
In the GreenScreen HC assay, cell viability is assessed using a propidium iodide uptake assay. Propidium iodide is an intercalating agent and a fluorescent molecule that can be used to stain cells. It is commonly used to quantitatively assess DNA content to evaluate cell viability or DNA content in cell cycle analysis and can be used to differentiate necrotic, apoptotic and normal cells (see, e.g., Dengler et al., 1995, Anticancer Drugs, Vol. 6, No. 4, pp. 522-532). Exposure to a cytotoxic compound increases the uptake of propidium iodide, which is monitored by optical absorbance and is proportional to […]. Cytotoxic compounds are those that show an observed decrease in relative population survival below a significance threshold set at 90% compared to vehicle-treated control, at one or more test concentrations.
A dilution series of each test compound is generated in parallel in a 96-well, black microplate with an optically clear base. A standard genotoxic compound (methyl methanesulfonate, MMS) is added as an intra-plate quality control check. The plates are analysed at 24 hour and 48 hour time points using a microplate reader, which provides measurements of light absorbance and fluorescence for cells and solutions in the microplates wells.
In addition to measurements of cell viability and genotoxicity described above, the GreenScreen assay incorporates an assessment of the effects of metabolic activation in the assay, the “GreenScreen HC S9 assay”. To accomplish this, the cells are incubated both in the presence of and absence of the post-mitochondrial supernatant liver extract (known as “S9”). S9 is routinely used in genetic toxicology to supplement the test cells with mammalian phase I metabolism. To assess metabolic activation, compounds are incubated with the TK6 strain in the presence of 1% v/v S9 fraction mix for 3 hours with a subsequent 45 hour recovery time. After the recovery period, the GFP fluorescence signal and cell viability (assessed by propidium iodide uptake) are measured using a flow cytometer. Cyclophosphamide, a commonly used control in genotoxicity studies utilising metabolic activation, is used as the positive control in the assay. In the GreenScreen HC S9 assay, genotoxicity is evaluated by induction in GFP expression quantified using the mean sample fluorescence and cytotoxicity using the propidium iodide uptake assay described above. The statistically defined threshold for a positive genotoxicity result is 1.3, i.e. 30% induction over and above the baseline for the vehicle-treated control and the result is reported as positive or negative. Cytotoxic compounds are those that show an observed decrease in relative population survival below a significance threshold set at 90% compared to vehicle-treated control, at one or more test concentrations.
Stably transfected reporter cell lines were derived from the p53-competent human lymphoblastoid TK6 cell line. The reporter cell line carries an episomally replicating plasmid bearing the upstream promoter region and other regulatory sequences of the human GADD45a gene linked to a human optimised Green Fluorescent Protein (GFP) gene. The control cell line carries an identical plasmid except for the removal of 4 base pairs at the start of the EGFP gene, such that GFP is not produced. Both plasmids also carry a gene conferring resistance to hygromycin B to the cell line, allowing continued selection for plasmid presence (200 μg/mL hygromycin B; Invitrogen Corporation, Carlsbad, Calif.). […]

[3] = lowest effective concentration for loss of cell viability

Row | Compound | pIC50 [1] | Cytotoxicity, LEC, 48 h, −S9 ([2]; absence of S9 fraction) | Cytotoxicity, LEC, 48 h, +S9 ([2]; presence of S9 fraction) | Cytotoxicity, LEC, 24 h [2, 3] | Cytotoxicity, LEC, 24 h ([2]; lab scale batch tested in the range 1.3 mM to 0.3 pM) | Cytotoxicity, LEC, 24 h ([2]; mid scale batch tested in the range 164 μM to 0.003 μM) | Cytotoxicity, LEC, 48 h, +S9 ([2]; +S9, lab scale batch, 1.3 mM to 0.3 pM) | Cytotoxicity, LEC, 48 h, +S9 ([2]; +S9, mid scale batch, 164 μM to 0.003 μM) | Cytotoxicity, LEC, 48 h, −S9 ([2]; −S9, lab scale batch, 1.3 mM to 0.3 pM) | Cytotoxicity, LEC, 48 h, −S9 ([2]; −S9, mid scale batch, 164 μM to 0.003 μM)
1 | Cc1cc(S(=O)(=O)NC2CCC(C)(O)CC2)ccc1-c1ccc(F)cc1F (single isomer, unassigned) [REF001, reference compound] | 6.92 | 0.039 µM | 0.63 µM | 0.039 µM | – | – | – | – | – | –
2 | Cc1cc(S(=O)(=O)N[C@H]2CC[C@H](O)CC2)ccc1-c1ccc(F)cc1F [ABD735] | 7.00 | 0.31 µM | 5 µM | 0.31 µM | – | – | – | – | – | –
3 | O=S(=O)(N[C@H]1CC[C@H](O)CC1)c1ccc(-c2ncc(Cl)cc2Cl)cc1 [ABD836, reference compound] | 6.55 | 0.01 µM | 40 µM | 0.04 µM | – | – | – | – | – | –
4 | C[C@]1(O)CC[C@@H](NS(=O)(=O)c2ccc(-c3ccc(F)cc3F)cc2)CC1 [ABD899, reference compound] | 7.10 | – | – | – | <0.001 µM | 0.64 µM | 0.32 µM | 81.9 µM | <0.001 µM | 0.08 µM
5 | C[C@]1(O)CC[C@H](NS(=O)(=O)c2ccc(-c3ccc(F)cc3F)cc2)CC1 [ABD900, reference compound] | 6.25 | 0.07 µM | 74.1 µM | 0.29 µM | – | – | – | – | – | –
6 | C[C@]1(O)CC[C@H](NS(=O)(=O)c2ccc(-c3ccc(Cl)cc3C#N)cc2)CC1 [HMC-C-01-A, 4′-Chloro-2′-cyano-N-((1r,4r)-4-hydroxy-4-methylcyclohexyl)biphenyl-4-sulfonamide] | 6.89 | 0.12 µM | 60 µM | 0.47 µM | – | – | – | – | – | –
7 | C[C@]1(O)CC[C@@H](NS(=O)(=O)c2ccc(-c3ccc(Cl)cc3C#N)cc2)CC1 [HMC-C-01-B, 4′-Chloro-2′-cyano-N-((1s,4s)-4-hydroxy-4-methylcyclohexyl)-[1,1′-biphenyl]-4-sulfonamide] | – | 0.005 µM | 4.82 µM | 0.08 µM | – | – | – | – | – | –
8 | C[C@]1(O)CC[C@H](NS(=O)(=O)c2ccc(-c3ccc(F)cc3C(F)(F)F)cc2)CC1 [HMC-C-02-A, 4′-Fluoro-N-((1r,4r)-4-hydroxy-4-methylcyclohexyl)-2′-(trifluoromethyl)biphenyl-4-sulfonamide] | 6.59 | 60 µM | 120 µM | >1000 µM | – | – | – | – | – | –
9 | C[C@]1(O)CC[C@H](NS(=O)(=O)c2ccc(-c3c(F)cc(F)cc3F)cc2)CC1 [HMC-C-03-A, 2′,4′,6′-Trifluoro-N-((1r,4r)-4-hydroxy-4-methylcyclohexyl)biphenyl-4-sulfonamide] | 6.85 | 0.06 µM | 15 µM | 0.24 µM | – | – | – | – | – | –
10 | C[C@]1(O)CC[C@@H](NS(=O)(=O)c2ccc(-c3c(F)cc(F)cc3F)cc2)CC1 [HMC-C-03-B, 2′,4′,6′-Trifluoro-N-((1s,4s)-4-hydroxy-4-methylcyclohexyl)-[1,1′-biphenyl]-4-sulfonamide] | – | 0.08 µM | 10.8 µM | 0.17 µM | – | – | – | – | – | –
11 | C[C@]1(O)CC[C@H](NS(=O)(=O)c2ccc(-c3ncc(F)cc3F)c(F)c2)CC1 [HMC-N-01-A, 4-(3,5-Difluoropyridin-2-yl)-3-fluoro-N-((1r,4r)-4-hydroxy-4-methylcyclohexyl)benzenesulfonamide] | 6.89 | 0.12 µM | 60 µM | 0.94 µM | – | – | – | – | – | –
12 | C[C@]1(O)CC[C@@H](NS(=O)(=O)c2ccc(-c3ncc(F)cc3F)c(F)c2)CC1 [HMC-N-01-B, 4-(3,5-Difluoropyridin-2-yl)-3-fluoro-N-((1s,4s)-4-hydroxy-4-methylcyclohexyl)benzenesulfonamide] | – | 0.05 µM | 5.85 µM | 0.01 µM | – | – | – | – | – | –
13 | C[C@]1(O)CC[C@H](NS(=O)(=O)c2ccc(-c3ncc(F)cc3F)cc2)CC1 [HMC-N-02-A, 4-(3,5-Difluoropyridin-2-yl)-N-((1r,4r)-4-hydroxy-4-methylcyclohexyl)benzenesulfonamide] | 6.74 | 0.47 µM | 120 µM | 0.94 µM | – | – | – | – | – | –
14 | C[C@]1(O)CC[C@@H](NS(=O)(=O)c2ccc(-c3ncc(F)cc3F)cc2)CC1 [HMC-N-02-B, 4-(3,5-Difluoropyridin-2-yl)-N-((1s,4s)-4-hydroxy-4-methylcyclohexyl)benzenesulfonamide] | – | 0.01 µM | 10.2 µM | 0.04 µM | – | – | – | – | – | –
15 | C[C@]1(O)CC[C@H](NS(=O)(=O)c2ccc(-c3ncc(Cl)cc3Cl)cc2)CC1 [HMC-N-03-A, 4-(3,5-Dichloropyridin-2-yl)-N-((1r,4r)-4-hydroxy-4-methylcyclohexyl)benzenesulfonamide] | 6.77 | 0.24 µM | 30 µM | 0.94 µM | – | – | – | – | – | –
